Assay results taken from PMC9481151, “Discovery of new symmetrical and asymmetrical nitrile-containing 1,4-dihydropyridine derivatives as dual kinases and P-glycoprotein inhibitors: synthesis, in vitro assays, and in silico studies” (Journal of Enzyme Inhibition and Medicinal Chemistry, 2022).

Legend:
SK-MEL-28 = assay: NCI single dose (10 µM) SRB screen; format: cell-based, human; conditions: melanoma, 48 h
SNB-19 = assay: NCI single dose (10 µM) SRB screen; format: cell-based, human; conditions: CNS cancer, 48 h
NCI-H522 = assay: NCI single dose (10 µM) SRB screen; format: cell-based, human; conditions: non-small cell lung cancer, 48 h
HCT-116 = assay: NCI single dose (10 µM) SRB screen; format: cell-based, human; conditions: colon cancer, 48 h
UACC-257 = assay: NCI single dose (10 µM) SRB screen; format: cell-based, human; conditions: melanoma, 48 h
NCI-H226 = assay: NCI single dose (10 µM) SRB screen; format: cell-based, human; conditions: non-small cell lung cancer, 48 h
NCI-H23 = assay: NCI single dose (10 µM) SRB screen; format: cell-based, human; conditions: non-small cell lung cancer, 48 h
BT-549 = assay: NCI single dose (10 µM) SRB screen; format: cell-based, human; conditions: breast cancer, 48 h
SF-539 = assay: NCI single dose (10 µM) SRB screen; format: cell-based, human; conditions: CNS cancer, 48 h
HCT-15 = assay: NCI single dose (10 µM) SRB screen; format: cell-based, human; conditions: colon cancer, 48 h
786-0 = assay: NCI single dose (10 µM) SRB screen; format: cell-based, human; conditions: renal cancer, 48 h
RXF 393 = assay: NCI single dose (10 µM) SRB screen; format: cell-based, human; conditions: renal cancer, 48 h
T-47D = assay: NCI single dose (10 µM) SRB screen; format: cell-based, human; conditions: breast cancer, 48 h
NCI-H460 = assay: NCI single dose (10 µM) SRB screen; format: cell-based, human; conditions: non-small cell lung cancer, 48 h
SK-MEL-2 = assay: NCI single dose (10 µM) SRB screen; format: cell-based, human; conditions: melanoma, 48 h
U251 = assay: NCI single dose (10 µM) SRB screen; format: cell-based, human; conditions: CNS cancer, 48 h
UO-31 = assay: NCI single dose (10 µM) SRB screen; format: cell-based, human; conditions: renal cancer, 48 h
MOLT-4 = assay: NCI single dose (10 µM) SRB screen; format: cell-based, human; conditions: leukaemia, 48 h
SK-OV-3 = assay: NCI single dose (10 µM) SRB screen; format: cell-based, human; conditions: ovarian cancer, 48 h
CCRF-CEM = assay: NCI single dose (10 µM) SRB screen; format: cell-based, human; conditions: leukaemia, 48 h
UACC-62 = assay: NCI single dose (10 µM) SRB screen; format: cell-based, human; conditions: melanoma, 48 h
COLO 205 = assay: NCI single dose (10 µM) SRB screen; format: cell-based, human; conditions: colon cancer, 48 h
Pseudomonas aeruginosa = assay: Agar well diffusion method; conditions: relative to ciprofloxacin
MCF7 = assay: NCI single dose (10 µM) SRB screen; format: cell-based, human; conditions: breast cancer, 48 h
NCI/ADR-RES = assay: NCI single dose (10 µM) SRB screen; format: cell-based, human; conditions: ovarian cancer, 48 h
MDA-MB-231 = assay: NCI single dose (10 µM) SRB screen; format: cell-based, human; conditions: breast cancer, 48 h
MDA-MB-435 = assay: NCI single dose (10 µM) SRB screen; format: cell-based, human; conditions: melanoma, 48 h
NCI-H322M = assay: NCI single dose (10 µM) SRB screen; format: cell-based; conditions: non-small cell lung cancer, 48 h
MALME-3M = assay: NCI single dose (10 µM) SRB screen; format: cell-based, human; conditions: melanoma, 48 h
HS578T = assay: NCI single dose (10 µM) SRB screen; format: cell-based, human; conditions: breast cancer, 48 h
RPMI-8226 = assay: NCI single dose (10 µM) SRB screen; format: cell-based, human; conditions: leukaemia, 48 h
SR = assay: NCI single dose (10 µM) SRB screen; format: cell-based, human; conditions: leukaemia, 48 h
SNB-75 = assay: NCI single dose (10 µM) SRB screen; format: cell-based, human; conditions: CNS cancer, 48 h
K-562 = assay: NCI single dose (10 µM) SRB screen; format: cell-based, human; conditions: leukaemia, 48 h
PC-3 = assay: NCI single dose (10 µM) SRB screen; format: cell-based, human; conditions: prostate cancer, 48 h
HOP-92 = assay: NCI single dose (10 µM) SRB screen; format: cell-based, human; conditions: non-small cell lung cancer, 48 h
HT29 = assay: NCI single dose (10 µM) SRB screen; format: cell-based, human; conditions: colon cancer, 48 h
SN12C = assay: NCI single dose (10 µM) SRB screen; format: cell-based, human; conditions: renal cancer, 48 h
A498 = assay: NCI single dose (10 µM) SRB screen; format: cell-based, human; conditions: renal cancer, 48 h
Aspergillus flavus = assay: Agar well diffusion method
KM12 = assay: NCI single dose (10 µM) SRB screen; format: cell-based, human; conditions: colon cancer, 48 h
SF-268 = assay: NCI single dose (10 µM) SRB screen; format: cell-based, human; conditions: CNS cancer, 48 h
Candida albicans = assay: Agar well diffusion method; conditions: relative to clotrimazole
OVCAR-8 = assay: NCI single dose (10 µM) SRB screen; format: cell-based, human; conditions: ovarian cancer, 48 h
Escherichia coli = assay: Agar well diffusion method; conditions: relative to ciprofloxacin
OVCAR-5 = assay: NCI single dose (10 µM) SRB screen; format: cell-based, human; conditions: ovarian cancer, 48 h
EKVX = assay: NCI single dose (10 µM) SRB screen; format: cell-based, human; conditions: non-small cell lung cancer, 48 h
DU-145 = assay: NCI single dose (10 µM) SRB screen; format: cell-based, human; conditions: prostate cancer, 48 h
TK-10 = assay: NCI single dose (10 µM) SRB screen; format: cell-based, human; conditions: renal cancer, 48 h
OVCAR-4 = assay: NCI single dose (10 µM) SRB screen; format: cell-based, human; conditions: ovarian cancer, 48 h
SF-295 = assay: NCI single dose (10 µM) SRB screen; format: cell-based, human; conditions: CNS cancer, 48 h
LOX IMVI = assay: NCI single dose (10 µM) SRB screen; format: cell-based, human; conditions: melanoma, 48 h
NCI 60 cancer cell lines = assay: NCI single dose (10 µM) SRB screen, mean over panel; format: cell-based, human; conditions: mean over 60 cell lines, 48 h
ACHN = assay: NCI single dose (10 µM) SRB screen; format: cell-based, human; conditions: renal cancer, 48 h
OVCAR-3 = assay: NCI single dose (10 µM) SRB screen; format: cell-based, human; conditions: ovarian cancer, 48 h
HL-60(TB) = assay: NCI single dose (10 µM) SRB screen; format: cell-based, human; conditions: leukaemia, 48 h
HOP-62 = assay: NCI single dose (10 µM) SRB screen; format: cell-based, human; conditions: non-small cell lung cancer, 48 h
CAKI-1 = assay: NCI single dose (10 µM) SRB screen; format: cell-based, human; conditions: renal cancer, 48 h
SW-620 = assay: NCI single dose (10 µM) SRB screen; format: cell-based, human; conditions: colon cancer, 48 h
MDA-MB-468 = assay: NCI single dose (10 µM) SRB screen; format: cell-based, human; conditions: breast cancer, 48 h
SK-MEL-5 = assay: NCI single dose (10 µM) SRB screen; format: cell-based, human; conditions: melanoma, 48 h
M14 = assay: NCI single dose (10 µM) SRB screen; format: cell-based, human; conditions: melanoma, 48 h
HCC-2998 = assay: NCI single dose (10 µM) SRB screen; format: cell-based, human; conditions: colon cancer, 48 h
IGROV1 = assay: NCI single dose (10 µM) SRB screen; format: cell-based, human; conditions: ovarian cancer, 48 h
A549/ATCC = assay: NCI single dose (10 µM) SRB screen; format: cell-based, human; conditions: non-small cell lung cancer, 48 h
Bacillus subtilis = assay: Agar well diffusion method; conditions: relative to ciprofloxacin
Staphylococcus aureus = assay: Agar well diffusion method; conditions: relative to ciprofloxacin

## COC(=O)C1=C(C)NC(C)=C(C(=O)OC(C)(C)C)C1c1cccc(C#N)c1 (racemic) [Compound 2c, (±)-3-Tert-butyl 5-Methyl 4-(3-cyanophenyl)-2,6-dimethyl-1,4-dihydropyridine-3,5-dicarboxylate]
SK-MEL-28
  GI% SK-MEL-28: – (Only GI% ≥ 10 are shown)
SNB-19
  GI% SNB-19: – (Only GI% ≥ 10 are shown)
NCI-H522
  GI% NCI-H522: – (Only GI% ≥ 10 are shown)
HCT-116
  GI% HCT-116: – (Only GI% ≥ 10 are shown)
UACC-257
  GI% UACC-257: – (Only GI% ≥ 10 are shown)
NCI-H226
  GI% NCI-H226: – (Only GI% ≥ 10 are shown)
NCI-H23
  GI% NCI-H23: – (Only GI% ≥ 10 are shown)
BT-549
  GI% BT-549: – (Only GI% ≥ 10 are shown)
SF-539
  GI% SF-539: – (Only GI% ≥ 10 are shown)
HCT-15
  GI% HCT-15: – (Only GI% ≥ 10 are shown)
786-0
  GI% 786-0: – (Only GI% ≥ 10 are shown)
RXF 393
  GI% RXF 393: – (Only GI% ≥ 10 are shown)
T-47D
  GI% T-47D: 12%
NCI-H460
  GI% NCI-H460: – (Only GI% ≥ 10 are shown)
SK-MEL-2
  GI% SK-MEL-2: – (Only GI% ≥ 10 are shown)
U251
  GI% U251: – (Only GI% ≥ 10 are shown)
UO-31
  GI% UO-31: – (Only GI% ≥ 10 are shown)
MOLT-4
  GI% MOLT-4: – (Only GI% ≥ 10 are shown)
SK-OV-3
  GI% SK-OV-3: – (Only GI% ≥ 10 are shown)
CCRF-CEM
  GI% CCRF-CEM: – (Only GI% ≥ 10 are shown)
UACC-62
  GI% UACC-62: – (Only GI% ≥ 10 are shown)
COLO 205
  GI% COLO 205: – (Only GI% ≥ 10 are shown)
Pseudomonas aeruginosa
  % activity index, P. aeruginosa: – (Values below 25 are of limited value and not shown as they refer either to inactive or non-diffusing compounds)
MCF7
  GI% MCF7: 13%
other
  melting point: 157 to 159 °C
NCI/ADR-RES
  GI% NCI/ADR-RES: – (Only GI% ≥ 10 are shown)
MDA-MB-231
  GI% MDA-MB-231: – (Only GI% ≥ 10 are shown)
MDA-MB-435
  GI% MDA-MB-435: – (Only GI% ≥ 10 are shown)
NCI-H322M
  GI% NCI-H322M: – (Only GI% ≥ 10 are shown)
MALME-3M
  GI% MALME-3M: – (Only GI% ≥ 10 are shown)
HS578T
  GI% HS578T: – (Only GI% ≥ 10 are shown)
RPMI-8226
  GI% RPMI-8226: 12%
SR
  GI% SR: 15%
SNB-75
  GI% SNB-75: 27%
K-562
  GI% K-562: – (Only GI% ≥ 10 are shown)
PC-3
  GI% PC-3: 18%
HOP-92
  GI% HOP-92: 10%
HT29
  GI% HT29: – (Only GI% ≥ 10 are shown)
SN12C
  GI% SN12C: – (Only GI% ≥ 10 are shown)
A498
  GI% A498: – (Only GI% ≥ 10 are shown)
Aspergillus flavus; Aspergillus flavus, 24 h, read-out: Diameter of inhibition zone, A. flavus
  zone of inhibition at 1000 µg/mL: 7 mm
Aspergillus flavus; relative to clotrimazole
  % activity index, A. flavus: 28%
KM12
  GI% KM12: – (Only GI% ≥ 10 are shown)
SF-268
  GI% SF-268: – (Only GI% ≥ 10 are shown)
Candida albicans
  % activity index, C. albicans: – (Values below 25 are of limited value and not shown as they refer either to inactive or non-diffusing compounds)
OVCAR-8
  GI% OVCAR-8: – (Only GI% ≥ 10 are shown)
Escherichia coli
  % activity index, E. coli: – (Values below 25 are of limited value and not shown as they refer either to inactive or non-diffusing compounds)
OVCAR-5
  GI% OVCAR-5: – (Only GI% ≥ 10 are shown)
EKVX
  GI% EKVX: – (Only GI% ≥ 10 are shown)
DU-145
  GI% DU-145: – (Only GI% ≥ 10 are shown)
TK-10
  GI% TK-10: – (Only GI% ≥ 10 are shown)
OVCAR-4
  GI% OVCAR-4: – (Only GI% ≥ 10 are shown)
SF-295
  GI% SF-295: – (Only GI% ≥ 10 are shown)
LOX IMVI
  GI% LOX IMVI: – (Only GI% ≥ 10 are shown)
NCI 60 cancer cell lines
  Mean GI%: 0%
ACHN
  GI% ACHN: – (Only GI% ≥ 10 are shown)
OVCAR-3
  GI% OVCAR-3: – (Only GI% ≥ 10 are shown)
HL-60(TB)
  GI% HL-60(TB): – (Only GI% ≥ 10 are shown)
HOP-62
  GI% HOP-62: – (Only GI% ≥ 10 are shown)
CAKI-1
  GI% CAKI-1: 15%
SW-620
  GI% SW-620: – (Only GI% ≥ 10 are shown)
MDA-MB-468
  GI% MDA-MB-468: – (Only GI% ≥ 10 are shown)
SK-MEL-5
  GI% SK-MEL-5: – (Only GI% ≥ 10 are shown)
M14
  GI% M14: – (Only GI% ≥ 10 are shown)
HCC-2998
  GI% HCC-2998: – (Only GI% ≥ 10 are shown)
IGROV1
  GI% IGROV1: – (Only GI% ≥ 10 are shown)
A549/ATCC
  GI% A549/ATCC: – (Only GI% ≥ 10 are shown)
Bacillus subtilis
  % activity index, B. subtilis: – (Values below 25 are of limited value and not shown as they refer either to inactive or non-diffusing compounds)
Staphylococcus aureus
  % activity index, S. aureus: – (Values below 25 are of limited value and not shown as they refer either to inactive or non-diffusing compounds)
